{"source": "PubChem BioAssay AID1413", "about": "(The Scripps Research Institute Molecular Screening Center, 2008)", "note": "Calls of active or inactive are those of the source.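 The calls were made as follows: active = CC50, the dose killing half the cells, at or below 10 µM, by curve fit or manual estimate; inactive = CC50 above 10 µM.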", "data": [{"system": "HeLa viability, CellTiter-Glo ATP luminescence", "assay": "HeLa cell cytotoxicity, dose response, cytotoxicity control for Wee1 degradation inhibitor project, CellTiter-Glo luminescence (AID 1413)", "values": [{"smiles": "O=C(/C=C/c1ccccc1)Nc1ccc(Cl)cn1", "CC50": "> 49.8 µM (inactive)"}, {"smiles": "COc1cccc(/C=N/NC(=O)c2cc3c(OC)c(OC)ccc3[nH]2)c1OC", "CC50": "> 49.8 µM (inactive)"}, {"smiles": "COc1ccc(/C=N/NC(=O)c2ccc3ccccc3c2)cc1OS(=O)(=O)c1ccc(NC(C)=O)cc1", "CC50": "> 49.8 µM (inactive)"}, {"smiles": "O=C(Nc1ccc(Cl)c(Cl)c1)Nc1nccs1", "CC50": "> 49.8 µM (inactive)"}, {"smiles": "O=C(N=Nc1c(O)[nH]c2ccc(Br)cc12)c1ccccc1-n1cccc1", "CC50": "> 49.8 µM (inactive)"}, {"smiles": "COc1cccc(C2=CC(c3cccc(OC)c3OC)n3nnnc3N2)c1", "note": "(stereo not drawn)", "CC50": "> 49.8 µM (inactive)"}, {"smiles": "O=[N+]([O-])c1ccc(Sc2cccc[n+]2[O-])c2nonc12", "CC50": "6.76 µM"}, {"smiles": "CCCCS(=O)(=O)/C=C\\C=C/S(=O)(=O)CCCC", "CC50": "> 16.6 µM (inactive)"}, {"smiles": "COC(=O)C1CCN(C(=O)/C=C/c2ccc(OC)cc2)CC1", "CC50": "> 49.8 µM (inactive)"}, {"smiles": "CCOC(=O)C1=C(c2ccccc2)O/C(=C(/C#N)C(F)(F)F)S1", "CC50": "7.17 µM"}, {"smiles": "O=C(/C=C/c1cccnc1)/C=C/c1cccnc1", "CC50": "> 49.8 µM (inactive)"}, {"smiles": "Cc1nc2ccccn2c1-c1csc(Nc2cccc(O)c2)n1", "CC50": "> 49.8 µM (inactive)"}, {"smiles": "COc1cc(C2=NOC(C(=O)NCc3cccs3)C2)cc(OC)c1OC", "note": "(stereo not drawn)", "CC50": "> 49.8 µM (inactive)"}, {"smiles": "COc1ccc(Nc2oc(-c3ccc(OC)cc3)nc2C#N)cc1", "CC50": "> 49.8 µM (inactive)"}, {"smiles": "Cc1csc2sc(-c3ccnc(SCC(=O)NCc4ccccc4)n3)c(C)c12", "CC50": "> 49.8 µM (inactive)"}, {"smiles": "O=C(COc1ccc(C(=O)c2ccc(F)cc2)cc1)NCc1ccc(F)cc1", "CC50": "> 49.8 µM (inactive)"}, {"smiles": "CCOC(=O)N1CCN(C(=O)c2cc(-c3ccc(OCC)cc3)nc3ccccc23)CC1", "CC50": "> 49.8 µM (inactive)"}, {"smiles": "Cn1cccc1/C=C1\\SC(=Nc2ccccc2)NC1=O", "CC50": "> 49.8 µM (inactive)"}, {"smiles": "CC(=O)Nc1ccc(/C=N/Nc2nc3ccccc3s2)cc1", "CC50": "> 49.8 µM (inactive)"}, {"smiles": "CCN(CC)S(=O)(=O)c1ccc(C(=O)NCCc2ccccn2)cc1", "CC50": "> 49.8 µM (inactive)"}, {"smiles": "CCOc1cccc(N(C(=O)Cc2cccs2)C(C(=O)NC2CCCCC2)c2cccn2C)c1", "note": "(stereo not drawn)", "CC50": "> 49.8 µM (inactive)"}, {"smiles": "COc1ccc(NC(=O)/C(Cl)=C(/Cl)S(=O)Cc2ccc(C)cc2)cn1", "note": "(stereo not drawn)", "CC50": "14.5 µM (inactive)"}, {"smiles": "Cc1ccc(/C=N/NC(=O)c2ccc3c(c2)OCCO3)s1", "CC50": "> 49.8 µM (inactive)"}, {"smiles": "Cc1ccc2nc(NCc3ccccc3)[nH]c2c1", "CC50": "> 49.8 µM (inactive)"}, {"smiles": "Cc1ccc(Nc2cc(C)nn2-c2nc(C)cc(=O)[nH]2)cc1", "CC50": "> 49.8 µM (inactive)"}, {"smiles": "CCCC1=Nc2cc(C(=O)NCc3ccco3)ccc2Sc2ccccc21", "CC50": "> 49.8 µM (inactive)"}, {"smiles": "C=CS(=O)(=O)c1ccc(Oc2ccc(S(=O)(=O)C=C)cc2)cc1", "CC50": "> 49.8 µM (inactive)"}, {"smiles": "Cc1cc(Cl)ccc1NC(=S)Nc1ccccn1", "CC50": "> 49.8 µM (inactive)"}, {"smiles": "CCN(CC)c1ccc(/C=N/NC(=O)c2cnccn2)cc1", "CC50": "> 49.8 µM (inactive)"}, {"smiles": "O=C1C=CC(O)(c2cc(=O)c3c(O)cc(O)cc3o2)C=C1", "CC50": "> 49.8 µM (inactive)"}, {"smiles": "O=c1[nH]c2ccccc2nc1/C=C(\\O)c1cccs1", "CC50": "> 49.8 µM (inactive)"}, {"smiles": "COc1ccccc1-c1ccc(SCc2ccccc2F)nn1", "CC50": "> 49.8 µM (inactive)"}, {"smiles": "COc1ccc(NC(=O)/C(Cl)=C(/Cl)S(=O)Cc2ccccc2)cn1", "note": "(stereo not drawn)", "CC50": "> 16.6 µM (inactive)"}, {"smiles": "O=S(=O)(C/C(=C/CO)S(=O)(=O)c1ccccc1)c1ccccc1", "CC50": "> 49.8 µM (inactive)"}, {"smiles": "Cc1ccnc(NC(=O)CCCOc2cc(=O)n(C)c3ccccc23)c1", "CC50": "> 49.8 µM (inactive)"}, {"smiles": "Cc1cccn2c1nc(=S)n2C(=O)c1ccco1", "CC50": "> 49.8 µM (inactive)"}, {"smiles": "CCN(CC)c1ccc(/C=N/NC(=O)c2ccco2)cc1", "CC50": "> 49.8 µM (inactive)"}, {"smiles": "On1onc2c3cc(-c4ccccc4)nc3ccc21", "CC50": "> 49.8 µM (inactive)"}]}]}
